“And” between values parts separate entries of the source, which are not always exact repeats. Equal entries are not always repeated.
Tested on: 628569-122-R-J1-PDC complex spheroid viability
Test: Anticancer human tumor 628569-122-R-J1-PDC patient-derived head and neck squamous carcinoma cell line growth inhibition [CLK]
Settings: for viability, T/C: stronger effect = lower value
Procedure, shortened: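 Multi-cell-type spheroids combined patient-derived tumor cells with HUVEC endothelial cells and human mesenchymal stem cells. Paired agents were dosed in half-log steps down from about clinical Cmax, or from 10 microM where Cmax was unknown.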

[1] = curve of first compound, second compound 0.0316 µM
[2] = curve of first compound, second compound 0.1 µM
[3] = curve of first compound, second compound 0.316 µM
[4] = curve of first compound, second compound 1 µM
[5] = curve of first compound, second compound 3.16 µM
[6] = curve of first compound, second compound 10 µM
[7] = second compound 0.0316 µM, first compound 0.000949 µM
[8] = second compound 0.0316 µM, first compound 0.003 µM
[9] = second compound 0.0316 µM, first compound 0.00949 µM
[10] = second compound 0.0316 µM, first compound 0.03 µM
[11] = second compound 0.0316 µM, first compound 0.0949 µM
[12] = second compound 0.0316 µM, first compound 0.3 µM
[13] = second compound 0.1 µM, first compound 0.000949 µM
[14] = second compound 0.1 µM, first compound 0.003 µM
[15] = second compound 0.1 µM, first compound 0.00949 µM
[16] = second compound 0.1 µM, first compound 0.03 µM
[17] = second compound 0.1 µM, first compound 0.0949 µM
[18] = second compound 0.1 µM, first compound 0.3 µM
[19] = second compound 0.316 µM, first compound 0.000949 µM
[20] = second compound 0.316 µM, first compound 0.003 µM
[21] = second compound 0.316 µM, first compound 0.00949 µM
[22] = second compound 0.316 µM, first compound 0.03 µM
[23] = second compound 0.316 µM, first compound 0.0949 µM
[24] = second compound 0.316 µM, first compound 0.3 µM
[25] = second compound 1 µM, first compound 0.000949 µM
[26] = second compound 1 µM, first compound 0.003 µM
[27] = second compound 1 µM, first compound 0.00949 µM
[28] = second compound 1 µM, first compound 0.03 µM
[29] = second compound 1 µM, first compound 0.0949 µM
[30] = second compound 1 µM, first compound 0.3 µM
[31] = second compound 3.16 µM, first compound 0.000949 µM
[32] = second compound 3.16 µM, first compound 0.003 µM
[33] = second compound 3.16 µM, first compound 0.00949 µM
[34] = second compound 3.16 µM, first compound 0.03 µM
[35] = second compound 3.16 µM, first compound 0.0949 µM
[36] = second compound 3.16 µM, first compound 0.3 µM
[37] = second compound 10 µM, first compound 0.000949 µM
[38] = second compound 10 µM, first compound 0.003 µM
[39] = second compound 10 µM, first compound 0.00949 µM
[40] = second compound 10 µM, first compound 0.03 µM
[41] = second compound 10 µM, first compound 0.0949 µM
[42] = second compound 10 µM, first compound 0.3 µM
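Further: spheroids exposed to agents for seven days before readout.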
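Wherever viability, T/C is given: 100% = DMSO vehicle control viability.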

CC(C)CC(NC(=O)C(Cc1ccccc1)NC(=O)c1cnccn1)B(O)O (stereo not drawn) + CNC(=O)c1ccc(Nc2nc(OC3CCCC3)c3c(-c4ccc5nc(C)oc5c4)c[nH]c3n2)c(OC)c1
IC50 [1]: 4.63 nM
IC50 [2]: 2.65 nM
IC50 [3]: < 0.949 nM
IC50 [4]: < 0.949 nM
IC50 [5]: < 0.949 nM
IC50 [6]: < 0.949 nM
viability, T/C [7]: 106%
viability, T/C [8]: 73.5%
viability, T/C [9]: 11.5%
viability, T/C [10]: 2.71%
viability, T/C [11]: 11.1%
viability, T/C [12]: 7.23%
viability, T/C [13]: 67.5%
viability, T/C [14]: 47.9%
viability, T/C [15]: 9.96%
viability, T/C [16]: 3.01%
viability, T/C [17]: 8.44%
viability, T/C [18]: 6.5%
viability, T/C [19]: 48.9%
viability, T/C [20]: 41.4%
viability, T/C [21]: 9.14%
viability, T/C [22]: 2.35%
viability, T/C [23]: 4.07%
viability, T/C [24]: 3.8%
viability, T/C [25]: 46.9%
viability, T/C [26]: 29.3%
viability, T/C [27]: 4.76%
viability, T/C [28]: 10.9%
viability, T/C [29]: 17.6%
viability, T/C [30]: 13.2%
viability, T/C [31]: 46.5%
viability, T/C [32]: 18%
viability, T/C [33]: 11.5%
viability, T/C [34]: 21%
viability, T/C [35]: 9.26%
viability, T/C [36]: 7.04%
viability, T/C [37]: 44.6%
viability, T/C [38]: 19.1%
viability, T/C [39]: 9.08%
viability, T/C [40]: 7.35%
viability, T/C [41]: 11.3%
viability, T/C [42]: 12.8%

C=CC(=O)N1CCN(c2nc(=O)n(-c3c(C)ccnc3C(C)C)c3nc(-c4c(O)cccc4F)c(F)cc23)C(C)C1 (stereo not drawn)
viability, T/C (compound 0.0316 µM): 88.8% and 84.2%
viability, T/C (compound 0.1 µM): 95.5% and 87.3%
viability, T/C (compound 0.316 µM): 92.8% and 92.9%
viability, T/C (compound 1 µM): 113% and 101%
viability, T/C (compound 3.16 µM): 124% and 132%
viability, T/C (compound 10 µM): 118% and 124%
IC50 (curve of compound): > 10000 nM

CCCS(=O)(=O)Nc1ccc(F)c(C(=O)c2c[nH]c3ncc(-c4ccc(Cl)cc4)cc23)c1F
viability, T/C (compound 0.0316 µM): 107% and 87%
viability, T/C (compound 0.1 µM): 88.2% and 74.5%
viability, T/C (compound 0.316 µM): 94.3% and 70.7%
viability, T/C (compound 1 µM): 108% and 71.2%
viability, T/C (compound 3.16 µM): 104% and 77.5%
viability, T/C (compound 10 µM): 83.7% and 70.3%
IC50 (curve of compound): > 10000 nM

C=CC(=O)Nc1cc(Nc2nccc(-c3cn(C)c4ccccc34)n2)c(OC)cc1N(C)CCN(C)C + CNC(=O)c1ccc(Nc2nc(OC3CCCC3)c3c(-c4ccc5nc(C)oc5c4)c[nH]c3n2)c(OC)c1
IC50 [1]: > 300 nM
IC50 [2]: 26.9 nM
IC50 [3]: 17.9 nM
IC50 [4]: < 0.949 nM
IC50 [5]: < 0.949 nM
IC50 [6]: < 0.949 nM
viability, T/C [7]: 81.8%
viability, T/C [8]: 98.1%
viability, T/C [9]: 86.1%
viability, T/C [10]: 84.2%
viability, T/C [11]: 68.1%
viability, T/C [12]: 53.7%
viability, T/C [13]: 63%
viability, T/C [14]: 56.2%
viability, T/C [15]: 52.4%
viability, T/C [16]: 49%
viability, T/C [17]: 49.6%
viability, T/C [18]: 37.6%
viability, T/C [19]: 50.7%
viability, T/C [20]: 55.7%
viability, T/C [21]: 49%
viability, T/C [22]: 49.5%
viability, T/C [23]: 41.5%
viability, T/C [24]: 23.9%
viability, T/C [25]: 49.1%
viability, T/C [26]: 51.4%
viability, T/C [27]: 38.8%
viability, T/C [28]: 42.1%
viability, T/C [29]: 36.6%
viability, T/C [30]: 18.9%
viability, T/C [31]: 43.1%
viability, T/C [32]: 48.9%
viability, T/C [33]: 39.3%
viability, T/C [34]: 44.2%
viability, T/C [35]: 23.7%
viability, T/C [36]: 13.7%
viability, T/C [37]: 46.5%
viability, T/C [38]: 40.6%
viability, T/C [39]: 46.8%
viability, T/C [40]: 45%
viability, T/C [41]: 25.8%
viability, T/C [42]: 12%

Source: PubChem BioAssay AID2060611 (Molecular Pharmacology Branch, DTP, NCI, 2025)
